Earlier results on one molecule are cited in US20230066413A1, “ST[…]” (priority 2021, published 2023).

The data set relates to antibiotic-resistant bacteria. Particulars: stated in background, no experiment described.

`O=c1c(O)c(-c2ccc(O)c(O)c2)oc2cc(O)cc(O)c12` [Quercetin]: the bactericidal concentration is 5,000 parts per million.
